Measured values: patent US6737383B1, “Herbicidal oxadiazolidines” (priority 1999, dated 2004)

Key:
blackgrass = assay: Test B pre/postemergence blackgrass; type: in vivo, Alopecurus myosuroides
Method in brief: (§1)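 Herbicidal effect was estimated by eye on a ten-point control scale after plants spent twelve to sixteen days in a greenhouse following soil or foliar treatment. Foliar sprays targeted plants at one to four leaves; all doses were formulated in a non-phytotoxic solvent with surfactant.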

surinam grass = assay: Test B pre/postemergence surinam grass; type: in vivo, Brachiaria decumbens
Method in brief: as §1

cocklebur = assay: Test B pre/postemergence cocklebur; type: in vivo, Xanthium strumarium
Method in brief: as §1

corn = assay: Test B pre/postemergence corn; type: in vivo, Zea mays
Method in brief: as §1

crabgrass = assay: Test B pre/postemergence crabgrass; type: in vivo, Digitaria sanguinalis
Method in brief: as §1

giant foxtail = assay: Test B pre/postemergence giant foxtail; type: in vivo, Setaria faberii
Method in brief: as §1

morningglory = assay: Test B pre/postemergence morningglory; type: in vivo, Ipomoea hederacea
Method in brief: as §1

rape = assay: Test B pre/postemergence rape; type: in vivo, Brassica napus
Method in brief: as §1

soybean = assay: Test B pre/postemergence soybean; type: in vivo, Glycine max
Method in brief: as §1

sugar beet = assay: Test B pre/postemergence sugar beet; type: in vivo, Beta vulgaris
Method in brief: as §1

velvetleaf = assay: Test B pre/postemergence velvetleaf; type: in vivo, Abutilon theophrasti
Method in brief: as §1

wheat = assay: Test B pre/postemergence wheat; type: in vivo, Triticum aestivum
Method in brief: as §1

wild oat = assay: Test B pre/postemergence wild oat; type: in vivo, Avena fatua
Method in brief: as §1

purple nutsedge = assay: Test B pre/postemergence purple nutsedge; type: in vivo, Cyperus rotundus
Method in brief: as §1

[1] = Postemergence, Rate 125 g/ha, scale of 0 to 10 where 0 is no effect and 10 is complete control
[2] = Preemergence, Rate 62 g/ha, scale of 0 to 10 where 0 is no effect and 10 is complete control
[3] = Preemergence, Rate 125 g/ha, 0 is no effect, 10 is complete control
[4] = Preemergence, Rate 250 g/ha, scale 0 to 10, 0 is no effect, 10 is complete control
[5] = Preemergence, Rate 500 g/ha, scale 0 to 10 (0 no effect, 10 complete control)
[6] = Rate 62 g/ha, Postemergence, scale of 0 to 10 where 0 is no effect and 10 is complete control
[7] = Rate 250 g/ha, Postemergence, scale 0 to 10, 0 is no effect, 10 is complete control
[8] = Rate 500 g/ha, Postemergence, scale 0 to 10

CC(C)N(C(=O)n1oc(=O)n([C@@H](C)c2ccccc2)c1=O)c1ccccc1 [Compound 173]
Blackgrass plant response rating (blackgrass; [1]): 0
Blackgrass plant response rating (blackgrass; [2]): 0
Blackgrass plant response rating (0 to 10 scale) (blackgrass; [3]): 0
Blackgrass plant response rating (blackgrass; [4]): 0
Blackgrass plant response rating (blackgrass; [5]): 6
Blackgrass plant response rating (blackgrass; [6]): 0
Plant response rating, Blackgrass (blackgrass; [7]): 2
Blackgrass plant response rating (blackgrass; [8]): 2
B. signalgrass plant response rating (surinam grass; [1]): 0
B. signalgrass plant response rating (surinam grass; [2]): 0
B. signalgrass plant response rating (0 to 10 scale) (surinam grass; [3]): 0
B. signalgrass plant response rating (surinam grass; [4]): 3
B. signalgrass plant response rating (surinam grass; [5]): 4
B. signalgrass plant response rating (surinam grass; [6]): 0
Plant response rating, B. signalgrass (surinam grass; [7]): 0
B. signalgrass plant response rating (surinam grass; Rate 500 g/ha, Postemergence, scale 0 to 10, 0 no effect, 10 complete control): 0
Cocklebur plant response rating (cocklebur; [1]): 0
Cocklebur plant response rating (cocklebur; [2]): 0
Cocklebur plant response rating (0 to 10 scale) (cocklebur; [3]): 0
Cocklebur plant response rating (cocklebur; [4]): 0
Cocklebur plant response rating (cocklebur; [5]): 0
Cocklebur plant response rating (cocklebur; [6]): 0
Plant response rating, Cocklebur (cocklebur; [7]): 1
Cocklebur plant response rating (cocklebur; [8]): 2
Corn plant response rating (corn; [1]): 0
Corn plant response rating (corn; [2]): 0
Corn plant response rating (0 to 10 scale) (corn; [3]): 0
Corn plant response rating (corn; [4]): 0
Corn plant response rating (corn; [5]): 0
Corn plant response rating (corn; [6]): 0
Plant response rating, Corn (corn; [7]): 0
Corn plant response rating (corn; [8]): 0
Crabgrass plant response rating (crabgrass; [1]): 4
Crabgrass plant response rating (crabgrass; [2]): 2
Crabgrass plant response rating (0 to 10 scale) (crabgrass; [3]): 6
Crabgrass plant response rating (crabgrass; [4]): 8
Crabgrass plant response rating (crabgrass; [5]): 9
Crabgrass plant response rating (crabgrass; [6]): 0
Plant response rating, Crabgrass (crabgrass; [7]): 5
Crabgrass plant response rating (crabgrass; [8]): 8
Giant foxtail plant response rating (giant foxtail; [1]): 0
Giant foxtail plant response rating (giant foxtail; [2]): 6
Giant foxtail plant response rating (0 to 10 scale) (giant foxtail; [3]): 9
Giant foxtail plant response rating (giant foxtail; [4]): 9
Giant foxtail plant response rating (giant foxtail; [5]): 10
Giant foxtail plant response rating (giant foxtail; [6]): 0
Plant response rating, Giant foxtail (giant foxtail; [7]): 0
Giant foxtail plant response rating (giant foxtail; [8]): 0
Morningglory plant response rating (morningglory; [1]): 10
Morningglory plant response rating (morningglory; [2]): 0
Morningglory plant response rating (0 to 10 scale) (morningglory; [3]): 0
Morningglory plant response rating (morningglory; [4]): 0
Morningglory plant response rating (morningglory; [5]): 0
Morningglory plant response rating (morningglory; [6]): 7
Plant response rating, Morningglory (morningglory; [7]): 10
Morningglory plant response rating (morningglory; [8]): 10
Rape plant response rating (rape; [1]): 0
Rape plant response rating (rape; [2]): 0
Rape plant response rating (0 to 10 scale) (rape; [3]): 0
Rape plant response rating (rape; [4]): 0
Rape plant response rating (rape; [5]): 0
Rape plant response rating (rape; [6]): 0
Plant response rating, Rape (rape; [7]): 0
Rape plant response rating (rape; [8]): 0
Soybean plant response rating (soybean; [1]): 2
Soybean plant response rating (soybean; [2]): 0
Soybean plant response rating (0 to 10 scale) (soybean; [3]): 0
Soybean plant response rating (soybean; [4]): 0
Soybean plant response rating (soybean; [5]): 3
Soybean plant response rating (soybean; [6]): 2
Plant response rating, Soybean (soybean; [7]): 2
Soybean plant response rating (soybean; [8]): 4
Sugarbeets plant response rating (sugar beet; [1]): 0
Sugarbeets plant response rating (sugar beet; [2]): 0
Sugarbeets plant response rating (0 to 10 scale) (sugar beet; [3]): 2
Sugarbeets plant response rating (sugar beet; [4]): 3
Sugarbeets plant response rating (sugar beet; [5]): 6
Sugarbeets plant response rating (sugar beet; [6]): 0
Plant response rating, Sugarbeets (sugar beet; [7]): 0
Sugarbeets plant response rating (sugar beet; [8]): 5
Velvetleaf plant response rating (velvetleaf; [2]): 0
Velvetleaf plant response rating (0 to 10 scale) (velvetleaf; [3]): 0
Velvetleaf plant response rating (velvetleaf; [4]): 0
Velvetleaf plant response rating (velvetleaf; [5]): 0
Plant response rating, Velvetleaf (velvetleaf; [7]): 0
Velvetleaf plant response rating (velvetleaf; [8]): 0
Wheat plant response rating (wheat; [2]): 0
Wheat plant response rating (0 to 10 scale) (wheat; [3]): 0
Wheat plant response rating (wheat; [4]): 0
Wheat plant response rating (wheat; [5]): 0
Plant response rating, Wheat (wheat; [7]): 0
Wheat plant response rating (wheat; [8]): 0
Wild oats plant response rating (wild oat; [2]): 0
Wild oats plant response rating (0 to 10 scale) (wild oat; [3]): 0
Wild oats plant response rating (wild oat; [4]): 2
Wild oats plant response rating (wild oat; [5]): 3
Plant response rating, Wild oats (wild oat; [7]): 0
Wild oats plant response rating (wild oat; [8]): 0
Nutsedge plant response rating (purple nutsedge; [1]): 0
Nutsedge plant response rating (purple nutsedge; [2]): 0
Nutsedge plant response rating (0 to 10 scale) (purple nutsedge; [3]): 0
Nutsedge plant response rating (purple nutsedge; [4]): 0
Nutsedge plant response rating (purple nutsedge; [5]): 0
Nutsedge plant response rating (purple nutsedge; [6]): 0
Plant response rating, Nutsedge (purple nutsedge; [7]): 0
Nutsedge plant response rating (purple nutsedge; [8]): 0
